Experimental data published in patent publication US20230049549A1, “PEPTIDE COMPOUNDS AND METHODS OF TREATING DISEASES USING SAME” (Immunity Pharma Ltd., priority 2020, published 2023).
Where no end group is shown, it is not given here. [ ]: non-standard residue; d: D form. dimethylproline = dimethylproline (dMP); Aib = CC(C)(N)C(=O)O

Tested on: BALB/c mice
Test: Rescue from dexamethasone-induced spleen and thymus weight and cell loss in mice
Format: in vivo, mouse
Conditions: for Average: average of spleen weight, spleen cell number, thymus weight, thymus cell number, Normal = 100%, DEXA alone 47%; for Thymus Cell number: relative to Normal mice = 100% (DEXA alone 23%); for Thymus Cell number / Thymus Weight / Spleen Cell number / Spleen Weight: dexamethasone 100 μg IP, peptide 200 μg/mouse IV immediately and 24 hours after, sacrificed 48 hours; for Thymus Weight: relative to Normal mice = 100% (DEXA alone 44%); for Spleen Cell number: relative to Normal mice = 100% (DEXA alone 59%); for Spleen Weight: relative to Normal mice = 100% (DEXA alone 62%)
Description: Dexamethasone is a corticosteroid medication that induces apoptosis of immune cells and lymphomyeloid tissues. BALB/c mice were used to examine the ability of candidate peptides to rescue lymphocyte cells from apoptosis. Mice were injected IP with 100 μg of Dexamethasone. Dexamethasone-treated mice received immediately following and 24-hours after dexamethasone treatment IV injection of candidate peptides (200 μg peptide/mouse). Mice were sacrificed 48 hours after the first treatment. The spleen and the thymus were weighted and full cell count of both organs was performed.
Peptides used in the screen were SEQ ID NOs: 1-13. The peptide of SEQ ID NO: 42 was used as a positive control. The peptides set forth in SEQ ID NOs: 35-41 were used as negative controls.

Substance | Average [%] | Thymus Cell number [%] | Thymus Weight [%] | Spleen Cell number [%] | Spleen Weight [%]
11 ([dL]PPHPYP) [compound 11] | 68 | 49 | 52 | 91 | 81
38 ([dL]PPL[Aib]YP) [compound 38] | 52 | 24 | 50 | 66 | 67
13 (LP[dimethylproline]LPYP) [compound 13] | 65 | 44 | 49 | 84 | 82
10 (LPPHPYP) [compound 10] | 65 | 33 | 56 | 85 | 84
36 ([dL]PPH[Aib]YP) [compound 36] | 54 | 40 | 43 | 69 | 64
40 ([dL]PPLAY) [compound 40] | 55 | 34 | 41 | 72 | 72
35 (LPPH[Aib]YP) [compound 35] | 52 | 39 | 42 | 65 | 62
9 (LPPSPYP) [compound 9] | 61 | 31 | 55 | 82 | 76
7 (L[dimethylproline]PLPYP) [compound 7] | 67 | 29 | 72 | 82 | 84
4 ([dP]PL[Aib]Y-NH2; N-terminus assumed; SMILES CC(C)C[C@H](NC(=O)[C@@H]1CCCN1C(=O)[C@H]1CCCN1)C(=O)NC(C)(C)C(=O)N[C@@H](Cc1ccc(O)cc1)C(N)=O) [compound 4] | 61 | 31 | 55 | 82 | 77
1 (LPPL[Aib]YP) [compound 1] | 65 | 28 | 59 | 82 | 89
37 (Ac-PPL[Aib]Y-NH2; SMILES CC(=O)N1CCC[C@H]1C(=O)N1CCC[C@H]1C(=O)N[C@@H](CC(C)C)C(=O)NC(C)(C)C(=O)N[C@@H](Cc1ccc(O)cc1)C(N)=O) [compound 37] | 55 | 24 | 48 | 77 | 69
42 (LPPLPYP) [compound 42] | 59 | 34 | 47 | 78 | 79
39 ([dL]PPL[Aib]Y) [compound 39] | 55 | 27 | 50 | 73 | 69
41 ([dL]PPLAY[Aib]) [compound 41] | 51 | 25 | 49 | 61 | 69
5 ([dL]PPH[Aib]Y-NH2; N-terminus assumed; SMILES CC(C)C[C@@H](N)C(=O)N1CCC[C@H]1C(=O)N1CCC[C@H]1C(=O)N[C@@H](Cc1c[nH]cn1)C(=O)NC(C)(C)C(=O)N[C@@H](Cc1ccc(O)cc1)C(N)=O) [compound 5] | 68 | 49 | 52 | 91 | 81
8 (LPPVPYP) [compound 8] | 60 | 30 | 53 | 82 | 76
12 ([dL]P[Aib]LAYP) [compound 12] | 72 | 51 | 63 | 85 | 89
2 (LPPLPY[Aib]) [compound 2] | 65 | 25 | 61 | 85 | 89
6 (LPP[dL]PYP) [compound 6] | 58 | 23 | 48 | 80 | 80
